Measured values as given in ChEMBL document CHEMBL3044763, “Inhibitory Activities of Rhodanine Derivatives on Plant Growth” (Biosci Biotechnol Biochem, 1996).

Key:
[1] = Toxicity in ip dosed Mus musculus ddY (mouse) assessed as mortality after 1 to 7 days; assay type: organism-based; conditions: in vivo
[2] = Toxicity in Mus musculus ddY (mouse) assessed as mortality at 550 mg/kg, ip after 6 days; assay type: organism-based; design: dose 550 mg/kg, route intraperitoneal; conditions: in vivo
[3] = Toxicity in Mus musculus ddY (mouse) assessed as mortality at 500 mg/kg, ip after 2 days; assay type: organism-based; design: dose 500 mg/kg, route intraperitoneal; conditions: in vivo
[4] = Toxicity in Mus musculus ddY (mouse) assessed as mortality at 400 mg/kg, ip after 3 days; assay type: organism-based; design: dose 400 mg/kg, route intraperitoneal; conditions: in vivo
[5] = tested on: Brassica rapa subsp. oleifera; assay: Growth inhibition of Brassica rapa subsp. oleifera assessed as chlorophyll b level at 1 x 10^-4 M after 7 days; assay type: functional; design: scale not given: the % may be the effect or the level left
[6] = Toxicity in Mus musculus ddY (mouse) assessed as mortality at 500 mg/kg, ip after 1 day; assay type: organism-based; design: dose 500 mg/kg, route intraperitoneal; conditions: in vivo
[7] = Toxicity in Mus musculus ddY (mouse) assessed as mortality at 450 mg/kg, ip after 6 days; assay type: organism-based; design: dose 450 mg/kg, route intraperitoneal; conditions: in vivo
[8] = tested on: Brassica rapa subsp. oleifera; assay: Growth inhibition of Brassica rapa subsp. oleifera assessed as root growth at 3 x 10^-4 M after 7 days; assay type: functional
[9] = Toxicity in Mus musculus ddY (mouse) assessed as mortality at 550 mg/kg, ip after 3 days; assay type: organism-based; design: dose 550 mg/kg, route intraperitoneal; conditions: in vivo
[10] = Toxicity in Mus musculus ddY (mouse) assessed as mortality at 450 mg/kg, ip after 2 days; assay type: organism-based; design: dose 450 mg/kg, route intraperitoneal; conditions: in vivo
[11] = Toxicity in Mus musculus ddY (mouse) assessed as mortality at 550 mg/kg, ip after 1 day; assay type: organism-based; design: dose 550 mg/kg, route intraperitoneal; conditions: in vivo
[12] = Toxicity in Mus musculus ddY (mouse) assessed as mortality at 400 mg/kg, ip after 7 days; assay type: organism-based; design: dose 400 mg/kg, route intraperitoneal; conditions: in vivo
[13] = Toxicity in Mus musculus ddY (mouse) assessed as mortality at 400 mg/kg, ip after 2 days; assay type: organism-based; design: dose 400 mg/kg, route intraperitoneal; conditions: in vivo
[14] = Toxicity in Mus musculus ddY (mouse) assessed as mortality at 600 mg/kg, ip after 4 days; assay type: organism-based; design: dose 600 mg/kg, route intraperitoneal; conditions: in vivo
[15] = Toxicity in Mus musculus ddY (mouse) assessed as mortality at 450 mg/kg, ip after 5 days; assay type: organism-based; design: dose 450 mg/kg, route intraperitoneal; conditions: in vivo
[16] = Toxicity in Mus musculus ddY (mouse) assessed as mortality at 400 mg/kg, ip after 4 days; assay type: organism-based; design: dose 400 mg/kg, route intraperitoneal; conditions: in vivo
[17] = Toxicity in Mus musculus ddY (mouse) assessed as mortality at 650 mg/kg, ip after 1 day; assay type: organism-based; design: dose 650 mg/kg, route intraperitoneal; conditions: in vivo
[18] = tested on: Brassica rapa subsp. oleifera; assay: Growth inhibition of Brassica rapa subsp. oleifera assessed as total chlorophyll level at 1 x 10^-4 M after 7 days; assay type: functional; design: scale not given: the % may be the effect or the level left
[19] = Toxicity in Mus musculus ddY (mouse) assessed as mortality at 650 mg/kg, ip after 5 days; assay type: organism-based; design: dose 650 mg/kg, route intraperitoneal; conditions: in vivo
[20] = Toxicity in Mus musculus ddY (mouse) assessed as mortality at 650 mg/kg, ip after 6 days; assay type: organism-based; design: dose 650 mg/kg, route intraperitoneal; conditions: in vivo
[21] = Toxicity in Mus musculus ddY (mouse) assessed as mortality at 600 mg/kg, ip after 5 days; assay type: organism-based; design: dose 600 mg/kg, route intraperitoneal; conditions: in vivo
[22] = tested on: Brassica rapa subsp. oleifera; assay: Growth inhibition of Brassica rapa subsp. oleifera assessed as chlorophyll a level at 3 x 10^-4 M after 7 days; assay type: functional; design: scale not given: the % may be the effect or the level left
[23] = Toxicity in Mus musculus ddY (mouse) assessed as mortality at 500 mg/kg, ip after 6 days; assay type: organism-based; design: dose 500 mg/kg, route intraperitoneal; conditions: in vivo
[24] = Toxicity in Mus musculus ddY (mouse) assessed as mortality at 600 mg/kg, ip after 1 day; assay type: organism-based; design: dose 600 mg/kg, route intraperitoneal; conditions: in vivo
[25] = Toxicity in Mus musculus ddY (mouse) assessed as mortality at 450 mg/kg, ip after 1 day; assay type: organism-based; design: dose 450 mg/kg, route intraperitoneal; conditions: in vivo
[26] = Toxicity in Mus musculus ddY (mouse) assessed as mortality at 550 mg/kg, ip after 7 days; assay type: organism-based; design: dose 550 mg/kg, route intraperitoneal; conditions: in vivo
[27] = Toxicity in Mus musculus ddY (mouse) assessed as mortality at 500 mg/kg, ip after 5 days; assay type: organism-based; design: dose 500 mg/kg, route intraperitoneal; conditions: in vivo
[28] = Toxicity in Mus musculus ddY (mouse) assessed as mortality at 400 mg/kg, ip after 6 days; assay type: organism-based; design: dose 400 mg/kg, route intraperitoneal; conditions: in vivo
[29] = Toxicity in Mus musculus ddY (mouse) assessed as mortality at 650 mg/kg, ip after 7 days; assay type: organism-based; design: dose 650 mg/kg, route intraperitoneal; conditions: in vivo
[30] = Toxicity in Mus musculus ddY (mouse) assessed as mortality at 650 mg/kg, ip after 4 days; assay type: organism-based; design: dose 650 mg/kg, route intraperitoneal; conditions: in vivo

O=C(O)CN1C(=O)CSC1=S [RHODANINE-3-ACETIC ACID]
510 mg/kg: LD50 [1]
10.17%: Activity [22]
20%: mortality at 48 h [3] | mortality at 144 h [7] | mortality at 120 h [15] | mortality at 24 h [17] | mortality at 24 h [24] | mortality at 120 h [27]
0%: mortality at 72 h [4] | mortality at 24 h [6] | mortality at 48 h [10] | mortality at 24 h [11] | mortality at 168 h [12] | mortality at 48 h [13] | mortality at 96 h [16] | mortality at 24 h [25] | mortality at 144 h [28]
19.57%: Activity [18]
80%: mortality at 144 h [2] | mortality at 96 h [14] | mortality at 120 h [21] | mortality at 168 h [26]
5.48%: Activity [5]
18.3 mm: Activity [8]
100%: mortality at 120 h [19] | mortality at 144 h [20] | mortality at 168 h [29] | mortality at 96 h [30]
40%: mortality at 72 h [9] | mortality at 144 h [23]
